From the CheMixHub viscosity set
± gives the uncertainty stated by the source.

Assay: xn = mol fraction of the nth substance listed

CS(C)=O + CCCCCCO
101 kPa
Conditions	viscosity [mPa·s]
303.15 K, x1 = 0.1678	2.991 ± 0.035
303.15 K, x1 = 0.1907	2.831 ± 0.035
303.15 K, x1 = 0.3273	2.582 ± 0.029
303.15 K, x1 = 0.3639	2.288 ± 0.028
303.15 K, x1 = 0.4458	2.342 ± 0.026
303.15 K, x1 = 0.522	2.088 ± 0.026
303.15 K, x1 = 0.5483	2.171 ± 0.023
303.15 K, x1 = 0.64	2.061 ± 0.021
303.15 K, x1 = 0.6669	1.898 ± 0.024
303.15 K, x1 = 0.7228	1.983 ± 0.02
303.15 K, x1 = 0.8002	1.739 ± 0.022
303.15 K, x1 = 0.8098	1.901 ± 0.018
303.15 K, x1 = 0.8795	1.827 ± 0.017
303.15 K, x1 = 0.9231	1.722 ± 0.022
303.15 K, x1 = 0.9413	1.754 ± 0.016
313 K, x1 = 0.1163	2.459 ± 0.064
313 K, x1 = 0.203	2.239 ± 0.058
313 K, x1 = 0.4013	1.891 ± 0.049
313 K, x1 = 0.4964	1.793 ± 0.046
313 K, x1 = 0.5978	1.719 ± 0.045
313 K, x1 = 0.6873	1.666 ± 0.043
313 K, x1 = 0.7968	1.593 ± 0.041
313 K, x1 = 0.9124	1.574 ± 0.041

C1CCCCCCC1 + Cc1cccc(C)c1
viscosity [mPa·s], 101 kPa
Conditions	x2 = 0.1149	x2 = 0.1922	x2 = 0.2902	x2 = 0.412	x2 = 0.4831	x2 = 0.6078	x2 = 0.6874	x2 = 0.7916	x2 = 0.9058
308.15 K	1.376 ± 0.022	1.182 ± 0.019	1.004 ± 0.017	0.8506 ± 0.014	0.7816 ± 0.013	0.6836 ± 0.012	0.64 ± 0.011	0.5877 ± 0.01	0.5525 ± 0.0099
313.15 K	1.266 ± 0.02	1.085 ± 0.017	0.9357 ± 0.015	0.7866 ± 0.013	0.734 ± 0.013	0.6372 ± 0.011	0.6046 ± 0.011	0.5645 ± 0.01	0.5202 ± 0.0095

CCN(CC)CCO + CC(=O)N(C)C
viscosity [mPa·s], 101 kPa
Conditions	298.15 K	308.15 K	318.15 K
x2 = 0.0505	2.874 ± 0.018	2.164 ± 0.014	1.669 ± 0.011
x2 = 0.0999	2.683 ± 0.017	1.999 ± 0.013	1.517 ± 0.01
x2 = 0.1499	2.512 ± 0.016	1.849 ± 0.012	1.374 ± 0.009
x2 = 0.2004	2.356 ± 0.015	1.715 ± 0.011	1.254 ± 0.008
x2 = 0.2997	2.089 ± 0.014	1.502 ± 0.01	1.08 ± 0.008
x2 = 0.3997	1.871 ± 0.013	1.314 ± 0.009	0.956 ± 0.007
x2 = 0.5008	1.677 ± 0.012	1.207 ± 0.009	0.861 ± 0.006
x2 = 0.5998	1.51 ± 0.011	1.103 ± 0.008	0.792 ± 0.006
x2 = 0.6995	1.357 ± 0.01	1.015 ± 0.008	0.747 ± 0.006
x2 = 0.7989	1.2 ± 0.009	0.932 ± 0.007	0.721 ± 0.006
x2 = 0.8997	1.046 ± 0.008	0.854 ± 0.007	0.7 ± 0.006

CCCCCCCO + CCCO
viscosity [mPa·s], 101 kPa
Conditions	298.15 K	308.15 K	318.15 K
x2 = 0.05	5.555 ± 0.054	4.09 ± 0.038	3.044 ± 0.028
x2 = 0.1	5.333 ± 0.051	3.923 ± 0.037	2.935 ± 0.027
x2 = 0.15	5.11 ± 0.049	3.762 ± 0.035	2.83 ± 0.026
x2 = 0.2	4.888 ± 0.047	3.607 ± 0.034	2.728 ± 0.025
x2 = 0.25	4.667 ± 0.044	3.456 ± 0.032	2.627 ± 0.024
x2 = 0.3	4.449 ± 0.042	3.309 ± 0.031	2.528 ± 0.023
x2 = 0.35	4.235 ± 0.04	3.166 ± 0.029	2.429 ± 0.022
x2 = 0.4	4.026 ± 0.037	3.027 ± 0.028	2.331 ± 0.021
x2 = 0.45	3.822 ± 0.035	2.89 ± 0.026	2.234 ± 0.02
x2 = 0.5	3.623 ± 0.033	2.756 ± 0.025	2.136 ± 0.019
x2 = 0.55	3.431 ± 0.032	2.624 ± 0.024	2.039 ± 0.018
x2 = 0.6	3.243 ± 0.03	2.494 ± 0.022	1.942 ± 0.017
x2 = 0.65	3.061 ± 0.028	2.364 ± 0.021	1.845 ± 0.017
x2 = 0.7	2.882 ± 0.026	2.236 ± 0.02	1.748 ± 0.016
x2 = 0.75	2.707 ± 0.025	2.107 ± 0.019	1.654 ± 0.015
x2 = 0.8	2.534 ± 0.023	1.979 ± 0.018	1.56 ± 0.014
x2 = 0.85	2.362 ± 0.021	1.849 ± 0.017	1.47 ± 0.013
x2 = 0.9	2.189 ± 0.02	1.719 ± 0.015	1.382 ± 0.012
x2 = 0.95	2.013 ± 0.018	1.587 ± 0.014	1.299 ± 0.011

CCOC(=O)C(C)O (stereo unspecified) + C1CCOC1
101 kPa
Conditions	viscosity [mPa·s]
308.15 K, x1 = 0.6999	1.255 ± 0.024
313.15 K, x1 = 0.4001	0.7575 ± 0.014

CCCCCCCCCC + CC(C)O
viscosity [mPa·s]
Conditions	293.15 K	298.15 K	303.15 K	308.15 K
101 kPa, x2 = 0.0571	–	0.839 ± 0.007	–	0.757 ± 0.007
101 kPa, x2 = 0.1237	–	0.837 ± 0.007	–	0.74 ± 0.006
101 kPa, x2 = 0.1714	–	0.838 ± 0.007	–	0.726 ± 0.006
101 kPa, x2 = 0.2709	–	0.851 ± 0.007	–	0.735 ± 0.006
101 kPa, x2 = 0.3525	–	0.867 ± 0.007	–	0.746 ± 0.007
101 kPa, x2 = 0.4184	–	0.888 ± 0.007	–	0.762 ± 0.007
101 kPa, x2 = 0.5253	–	0.945 ± 0.008	–	0.8 ± 0.007
101 kPa, x2 = 0.5786	–	0.986 ± 0.008	–	0.824 ± 0.007
101 kPa, x2 = 0.6537	–	1.059 ± 0.009	–	0.882 ± 0.007
101 kPa, x2 = 0.6971	–	1.113 ± 0.009	–	0.909 ± 0.008
101 kPa, x2 = 0.7895	–	1.261 ± 0.01	–	1.013 ± 0.008
101 kPa, x2 = 0.8717	–	1.457 ± 0.011	–	1.152 ± 0.009
101 kPa, x2 = 0.9099	–	1.583 ± 0.012	–	1.246 ± 0.01
101 kPa, x2 = 0.9453	–	1.727 ± 0.013	–	1.35 ± 0.011
101.32 kPa, x2 = 0.0412	0.896 ± 0.012	0.831 ± 0.012	0.773 ± 0.011	–
101.32 kPa, x2 = 0.0998	0.893 ± 0.012	0.827 ± 0.011	0.768 ± 0.011	–
101.32 kPa, x2 = 0.161	0.904 ± 0.012	0.847 ± 0.012	0.785 ± 0.011	–
101.32 kPa, x2 = 0.2938	0.916 ± 0.012	0.845 ± 0.011	0.777 ± 0.011	–
101.32 kPa, x2 = 0.3954	0.957 ± 0.013	0.878 ± 0.012	0.809 ± 0.011	–
101.32 kPa, x2 = 0.4988	1.006 ± 0.013	0.916 ± 0.012	0.836 ± 0.011	–
101.32 kPa, x2 = 0.5943	1.095 ± 0.014	0.986 ± 0.013	0.893 ± 0.012	–
101.32 kPa, x2 = 0.7019	1.241 ± 0.016	1.11 ± 0.015	0.994 ± 0.013	–
101.32 kPa, x2 = 0.8012	1.436 ± 0.019	1.273 ± 0.017	1.127 ± 0.015	–
101.32 kPa, x2 = 0.9017	1.759 ± 0.023	1.538 ± 0.02	1.348 ± 0.017	–
101.32 kPa, x2 = 0.951	2.014 ± 0.026	1.742 ± 0.023	1.515 ± 0.02	–

CCCCCCCO + CO
viscosity [mPa·s], 101 kPa
Conditions	298.15 K	308.15 K	318.15 K
x2 = 0.05	5.378 ± 0.052	3.995 ± 0.037	2.975 ± 0.028
x2 = 0.1	4.999 ± 0.048	3.737 ± 0.034	2.809 ± 0.026
x2 = 0.15	4.634 ± 0.044	3.487 ± 0.032	2.647 ± 0.024
x2 = 0.2	4.284 ± 0.04	3.246 ± 0.029	2.488 ± 0.022
x2 = 0.25	3.949 ± 0.036	3.013 ± 0.027	2.332 ± 0.021
x2 = 0.3	3.627 ± 0.033	2.788 ± 0.025	2.179 ± 0.019
x2 = 0.35	3.319 ± 0.03	2.571 ± 0.023	2.028 ± 0.018
x2 = 0.4	3.025 ± 0.027	2.362 ± 0.021	1.88 ± 0.016
x2 = 0.45	2.744 ± 0.024	2.161 ± 0.019	1.735 ± 0.015
x2 = 0.5	2.475 ± 0.022	1.967 ± 0.017	1.592 ± 0.014
x2 = 0.55	2.22 ± 0.019	1.78 ± 0.015	1.453 ± 0.013
x2 = 0.6	1.978 ± 0.017	1.602 ± 0.014	1.317 ± 0.011
x2 = 0.65	1.75 ± 0.015	1.431 ± 0.012	1.184 ± 0.01
x2 = 0.7	1.534 ± 0.013	1.267 ± 0.011	1.056 ± 0.0092
x2 = 0.75	1.333 ± 0.012	1.113 ± 0.0097	0.9327 ± 0.0082
x2 = 0.8	1.145 ± 0.0099	0.9661 ± 0.0084	0.815 ± 0.0072
x2 = 0.85	0.9716 ± 0.0085	0.8284 ± 0.0073	0.7037 ± 0.0063
x2 = 0.9	0.8131 ± 0.0072	0.6998 ± 0.0063	0.5997 ± 0.0055
x2 = 0.95	0.6699 ± 0.006	0.5807 ± 0.0053	0.504 ± 0.0047
